How the values were obtained:
[1] = test system: Fibroblast growth factor receptor 2 (Homo sapiens), P21802 [N549H]; test: Inhibition of human FGFR2 N549H mutant catalytic domain expressed in baculovirus assessed as substrate phosphorylation using fluorescence-labelled peptides as substrate at 70 uM after 90 mins by microfluidic peptide phosphorylation assay
[2] = target: Tyrosine-protein kinase BTK (Homo sapiens) (UniProt Q06187); test: Inhibition of human full length BTK expressed in baculovirus assessed as substrate phosphorylation using fluorescence-labelled peptides as substrate at 0.2 uM after 90 mins by microfluidic peptide phosphorylation assay
Sequence of Tyrosine-protein kinase BTK (Homo sapiens) (Q06187 whole entry): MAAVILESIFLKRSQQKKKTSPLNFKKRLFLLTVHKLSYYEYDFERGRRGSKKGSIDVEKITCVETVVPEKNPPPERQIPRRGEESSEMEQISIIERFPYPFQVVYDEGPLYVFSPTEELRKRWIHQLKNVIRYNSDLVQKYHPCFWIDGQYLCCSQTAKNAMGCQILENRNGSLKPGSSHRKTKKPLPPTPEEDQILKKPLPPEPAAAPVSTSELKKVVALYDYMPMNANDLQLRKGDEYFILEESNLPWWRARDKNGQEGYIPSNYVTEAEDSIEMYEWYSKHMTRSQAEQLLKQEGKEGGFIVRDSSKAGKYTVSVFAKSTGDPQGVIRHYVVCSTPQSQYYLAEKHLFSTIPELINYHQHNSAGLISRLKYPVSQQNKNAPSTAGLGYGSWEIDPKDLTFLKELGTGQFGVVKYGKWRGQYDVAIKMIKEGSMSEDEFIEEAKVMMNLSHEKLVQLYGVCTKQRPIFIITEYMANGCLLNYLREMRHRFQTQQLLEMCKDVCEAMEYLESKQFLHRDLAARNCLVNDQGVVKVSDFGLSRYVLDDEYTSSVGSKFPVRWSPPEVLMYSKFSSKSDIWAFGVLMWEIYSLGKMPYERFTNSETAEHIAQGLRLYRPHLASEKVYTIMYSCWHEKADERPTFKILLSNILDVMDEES

[3] = target: T1, Mitogen-activated protein kinase 12 (Homo sapiens) (UniProt P53778); test: Inhibition of human full length p38 gamma expressed in Escherichia coli cell assessed as substrate phosphorylation using fluorescence-labelled peptides as substrate at 0.2 uM after 90 mins by microfluidic peptide phosphorylation assay
T1 sequence (whole entry): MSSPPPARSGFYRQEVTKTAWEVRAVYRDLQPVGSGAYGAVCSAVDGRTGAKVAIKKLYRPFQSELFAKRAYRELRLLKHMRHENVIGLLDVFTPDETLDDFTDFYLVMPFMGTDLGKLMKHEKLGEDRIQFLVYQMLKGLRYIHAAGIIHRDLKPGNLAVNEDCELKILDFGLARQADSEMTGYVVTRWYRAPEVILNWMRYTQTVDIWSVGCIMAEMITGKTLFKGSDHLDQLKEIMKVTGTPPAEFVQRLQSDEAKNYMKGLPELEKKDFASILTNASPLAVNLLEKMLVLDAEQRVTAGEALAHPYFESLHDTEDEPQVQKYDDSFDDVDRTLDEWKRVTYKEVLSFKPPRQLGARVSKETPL

[4] = test system: T2, Receptor-type tyrosine-protein kinase FLT3 (Homo sapiens), P36888 [D835Y]; test: Inhibition of human FLT3 D835Y mutant catalytic domain expressed in baculovirus assessed as substrate phosphorylation using fluorescence-labelled peptides as substrate at 95 uM after 90 mins by microfluidic peptide phosphorylation assay
T2 sequence (whole entry): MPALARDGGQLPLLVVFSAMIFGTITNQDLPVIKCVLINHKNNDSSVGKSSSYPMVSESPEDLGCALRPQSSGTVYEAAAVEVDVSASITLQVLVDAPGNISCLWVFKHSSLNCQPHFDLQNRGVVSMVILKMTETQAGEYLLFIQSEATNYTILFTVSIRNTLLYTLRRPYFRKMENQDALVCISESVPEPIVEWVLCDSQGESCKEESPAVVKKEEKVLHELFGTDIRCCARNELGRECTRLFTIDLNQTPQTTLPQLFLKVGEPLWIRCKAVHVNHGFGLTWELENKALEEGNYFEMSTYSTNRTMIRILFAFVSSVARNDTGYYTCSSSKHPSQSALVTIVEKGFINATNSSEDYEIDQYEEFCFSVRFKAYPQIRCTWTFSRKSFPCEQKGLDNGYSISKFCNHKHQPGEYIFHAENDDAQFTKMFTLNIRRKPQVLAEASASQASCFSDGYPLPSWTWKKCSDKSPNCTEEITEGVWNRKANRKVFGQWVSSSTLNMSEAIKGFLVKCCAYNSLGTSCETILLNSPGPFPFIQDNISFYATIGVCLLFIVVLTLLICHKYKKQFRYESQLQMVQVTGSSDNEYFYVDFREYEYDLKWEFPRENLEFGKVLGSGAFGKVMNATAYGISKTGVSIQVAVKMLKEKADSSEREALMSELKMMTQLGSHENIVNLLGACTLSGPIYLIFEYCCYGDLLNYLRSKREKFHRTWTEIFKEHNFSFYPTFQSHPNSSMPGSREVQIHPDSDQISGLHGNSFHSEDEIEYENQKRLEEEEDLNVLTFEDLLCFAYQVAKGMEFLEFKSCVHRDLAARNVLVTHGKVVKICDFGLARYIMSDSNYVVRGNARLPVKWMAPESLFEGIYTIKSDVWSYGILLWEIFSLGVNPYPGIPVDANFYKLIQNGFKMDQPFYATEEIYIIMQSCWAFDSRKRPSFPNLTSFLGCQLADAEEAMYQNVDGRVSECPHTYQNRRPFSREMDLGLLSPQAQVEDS

[5] = target: Mitogen-activated protein kinase kinase kinase kinase 4 (Homo sapiens) (UniProt O95819); test: Inhibition of human HGK catalytic domain expressed in baculovirus assessed as substrate phosphorylation using fluorescence-labelled peptides as substrate at 1000 uM after 90 mins by microfluidic peptide phosphorylation assay
Sequence of Mitogen-activated protein kinase kinase kinase kinase 4 (Homo sapiens) (O95819 2-1239 limits assumed): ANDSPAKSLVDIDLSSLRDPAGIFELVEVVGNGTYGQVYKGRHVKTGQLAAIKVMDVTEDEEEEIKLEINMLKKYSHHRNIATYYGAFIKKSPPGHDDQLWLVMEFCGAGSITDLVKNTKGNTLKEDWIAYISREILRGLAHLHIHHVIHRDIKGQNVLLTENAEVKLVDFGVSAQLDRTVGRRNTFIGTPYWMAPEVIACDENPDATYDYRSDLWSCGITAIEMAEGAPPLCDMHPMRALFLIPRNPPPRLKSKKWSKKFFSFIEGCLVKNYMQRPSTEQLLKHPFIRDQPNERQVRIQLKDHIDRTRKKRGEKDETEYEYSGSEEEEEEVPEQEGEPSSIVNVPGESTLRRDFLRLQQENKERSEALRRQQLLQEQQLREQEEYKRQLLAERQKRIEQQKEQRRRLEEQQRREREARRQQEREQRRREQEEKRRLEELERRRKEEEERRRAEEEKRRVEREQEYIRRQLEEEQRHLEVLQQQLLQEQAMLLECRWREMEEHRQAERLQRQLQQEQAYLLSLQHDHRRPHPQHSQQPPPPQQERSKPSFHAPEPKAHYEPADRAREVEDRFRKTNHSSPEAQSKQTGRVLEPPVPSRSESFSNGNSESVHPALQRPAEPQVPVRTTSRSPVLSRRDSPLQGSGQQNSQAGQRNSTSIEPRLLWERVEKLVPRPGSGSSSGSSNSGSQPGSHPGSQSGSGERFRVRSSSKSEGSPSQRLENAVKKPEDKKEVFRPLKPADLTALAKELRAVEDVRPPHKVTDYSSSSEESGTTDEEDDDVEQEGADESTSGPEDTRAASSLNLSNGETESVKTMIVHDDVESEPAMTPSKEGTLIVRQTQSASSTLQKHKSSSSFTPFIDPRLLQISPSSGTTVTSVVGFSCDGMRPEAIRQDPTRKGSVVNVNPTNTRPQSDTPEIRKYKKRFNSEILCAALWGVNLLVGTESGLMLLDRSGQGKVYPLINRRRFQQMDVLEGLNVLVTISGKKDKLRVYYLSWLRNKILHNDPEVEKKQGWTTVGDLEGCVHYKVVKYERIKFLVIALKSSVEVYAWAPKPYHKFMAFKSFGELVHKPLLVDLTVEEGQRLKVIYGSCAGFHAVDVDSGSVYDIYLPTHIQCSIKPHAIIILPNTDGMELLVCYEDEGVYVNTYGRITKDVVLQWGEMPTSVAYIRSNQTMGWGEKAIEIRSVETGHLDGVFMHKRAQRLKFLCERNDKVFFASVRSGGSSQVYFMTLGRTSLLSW

[6] = target: Fibroblast growth factor receptor 1 (Homo sapiens) (UniProt P11362); test: Inhibition of human FGFR1 catalytic domain expressed in baculovirus assessed as substrate phosphorylation using fluorescence-labelled peptides as substrate at 2 uM after 90 mins by microfluidic peptide phosphorylation assay
Sequence of Fibroblast growth factor receptor 1 (Homo sapiens) (P11362 22-822 limits assumed): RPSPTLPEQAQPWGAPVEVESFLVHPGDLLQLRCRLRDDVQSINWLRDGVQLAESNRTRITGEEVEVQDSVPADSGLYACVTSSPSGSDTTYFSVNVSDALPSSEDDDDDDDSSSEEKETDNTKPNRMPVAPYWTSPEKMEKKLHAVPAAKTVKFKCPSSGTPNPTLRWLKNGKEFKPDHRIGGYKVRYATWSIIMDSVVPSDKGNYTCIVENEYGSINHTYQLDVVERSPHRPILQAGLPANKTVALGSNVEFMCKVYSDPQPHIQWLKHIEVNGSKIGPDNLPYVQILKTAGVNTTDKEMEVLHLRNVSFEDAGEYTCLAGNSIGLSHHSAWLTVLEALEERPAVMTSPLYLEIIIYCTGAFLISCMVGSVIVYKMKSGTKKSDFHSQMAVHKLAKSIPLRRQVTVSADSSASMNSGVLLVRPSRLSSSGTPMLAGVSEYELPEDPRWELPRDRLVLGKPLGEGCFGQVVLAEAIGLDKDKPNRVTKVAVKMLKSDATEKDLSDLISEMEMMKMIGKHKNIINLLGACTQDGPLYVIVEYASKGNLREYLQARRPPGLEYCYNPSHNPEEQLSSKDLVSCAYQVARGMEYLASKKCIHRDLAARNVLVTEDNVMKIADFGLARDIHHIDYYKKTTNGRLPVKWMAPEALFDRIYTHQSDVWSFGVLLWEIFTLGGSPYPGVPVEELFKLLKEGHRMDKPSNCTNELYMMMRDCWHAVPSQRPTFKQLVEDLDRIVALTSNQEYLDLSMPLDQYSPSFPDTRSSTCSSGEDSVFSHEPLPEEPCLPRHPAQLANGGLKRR

[7] = target: T3, Protein kinase C epsilon type (Homo sapiens) (UniProt Q02156); settings: 0.1 uM
T3 sequence (whole entry): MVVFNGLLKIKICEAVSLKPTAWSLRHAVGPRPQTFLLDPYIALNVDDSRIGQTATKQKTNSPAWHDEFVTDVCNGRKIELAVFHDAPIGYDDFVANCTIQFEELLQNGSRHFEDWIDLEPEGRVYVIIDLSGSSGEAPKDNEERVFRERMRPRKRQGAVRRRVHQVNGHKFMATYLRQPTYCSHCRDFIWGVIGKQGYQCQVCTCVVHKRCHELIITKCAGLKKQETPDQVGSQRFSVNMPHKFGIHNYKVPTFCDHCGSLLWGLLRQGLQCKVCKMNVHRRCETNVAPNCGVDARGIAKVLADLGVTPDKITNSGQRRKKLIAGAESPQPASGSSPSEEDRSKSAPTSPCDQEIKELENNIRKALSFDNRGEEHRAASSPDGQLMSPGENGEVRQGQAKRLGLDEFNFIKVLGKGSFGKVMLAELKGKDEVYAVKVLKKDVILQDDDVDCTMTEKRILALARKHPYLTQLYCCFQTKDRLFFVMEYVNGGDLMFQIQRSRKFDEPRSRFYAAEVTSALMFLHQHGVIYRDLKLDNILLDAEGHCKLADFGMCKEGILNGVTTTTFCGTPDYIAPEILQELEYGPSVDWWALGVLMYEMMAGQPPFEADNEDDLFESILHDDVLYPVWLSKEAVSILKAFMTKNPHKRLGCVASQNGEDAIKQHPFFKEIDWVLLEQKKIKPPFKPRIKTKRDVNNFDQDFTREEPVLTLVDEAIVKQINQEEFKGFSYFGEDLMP
Description: Inhibition of human truncated PKC epsilon expressed in baculovirus assessed as substrate phosphorylation using fluorescence-labelled peptides as substrate at 0.1 uM after 90 mins by microfluidic peptide phosphorylation assay

Sequence of Fibroblast growth factor receptor 2 (Homo sapiens), P21802 [N549H] (P21802 whole entry N549H, the tested form may be a part): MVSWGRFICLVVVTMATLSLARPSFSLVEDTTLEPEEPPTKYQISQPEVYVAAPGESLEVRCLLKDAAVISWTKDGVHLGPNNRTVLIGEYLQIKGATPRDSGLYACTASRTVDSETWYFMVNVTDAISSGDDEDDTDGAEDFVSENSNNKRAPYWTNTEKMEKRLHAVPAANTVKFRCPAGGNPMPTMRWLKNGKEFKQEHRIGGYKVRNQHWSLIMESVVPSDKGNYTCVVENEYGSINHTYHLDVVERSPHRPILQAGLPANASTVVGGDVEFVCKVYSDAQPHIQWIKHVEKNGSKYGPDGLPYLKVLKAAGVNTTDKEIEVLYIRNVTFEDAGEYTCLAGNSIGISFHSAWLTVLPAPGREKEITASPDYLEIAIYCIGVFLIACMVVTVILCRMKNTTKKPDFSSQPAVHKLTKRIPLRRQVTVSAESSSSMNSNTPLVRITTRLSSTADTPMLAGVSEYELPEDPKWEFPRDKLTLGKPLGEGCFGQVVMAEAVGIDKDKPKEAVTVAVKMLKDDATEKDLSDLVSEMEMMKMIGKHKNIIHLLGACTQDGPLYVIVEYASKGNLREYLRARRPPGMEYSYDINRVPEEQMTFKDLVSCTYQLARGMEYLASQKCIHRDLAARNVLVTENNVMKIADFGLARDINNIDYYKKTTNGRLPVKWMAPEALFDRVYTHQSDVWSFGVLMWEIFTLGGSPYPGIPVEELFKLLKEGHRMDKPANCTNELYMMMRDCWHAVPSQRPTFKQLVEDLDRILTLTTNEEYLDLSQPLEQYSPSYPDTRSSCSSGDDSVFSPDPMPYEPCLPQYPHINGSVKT

In the case of CNCc1ccc(-c2ncnc3[nH]cnc23)cc1, the inhibition [1] was 35.5%.
Clc1ccc(C2(c3ccc(-c4ncnc5[nH]cnc45)cc3)CCNCC2)cc1 was tested, and the inhibition [2] was 0% and the inhibition [3] was 5%.
NCCc1ccc(-c2ncnc3[nH]cnc23)cc1 showed an inhibition [4] of 86%.
c1cnc2[nH]ccc2c1 was tested, and the inhibition [5] was 90%.
For NC1CCN(c2ncnc3[nH]ccc23)CC1, the inhibition [6] was 1.5%.
C[C@H](CN(C)C)Oc1nc(Nc2cc3cccc(Cl)c3cn2)cnc1C#N gave an inhibition [7] of 0%.
